Target: Carbonic anhydrase 9 (Homo sapiens, UniProt Q16790)

| Ki [nM] | Compound |
| --- | --- |
| 67 | NS(=O)(=O)c1nnc(NC(=O)CN2CCN(Cc3ccccc3)CC2)s1 |
| 31 | CN1CCN(CC(=O)Nc2nnc(S(N)(=O)=O)s2)CC1 |
| 181 | NS(=O)(=O)c1ccc(NC(=O)CN2CCOCC2)cc1 |
| 197 | CC1CCN(CCC(=O)Nc2ccc(S(N)(=O)=O)cc2)CC1 |
| 235 | CN1CCN(CCC(=O)Nc2ccc(S(N)(=O)=O)cc2)CC1 |
| 240 | NS(=O)(=O)c1ccc(NC(=O)CCN2CCN(Cc3ccccc3)CC2)cc1 |
| 163 | NS(=O)(=O)c1ccc(NC(=O)CCCCN2CCOCC2)cc1 |
| 35 | CC1CCN(CC(=O)Nc2nnc(S(N)(=O)=O)s2)CC1 |
| 184 | NS(=O)(=O)c1ccc(NC(=O)CCN2CCOCC2)cc1 |
| 90 | CC1CCN(CCCC(=O)Nc2ccc(S(N)(=O)=O)cc2)CC1 |
| 22 | NS(=O)(=O)c1nnc(NC(=O)CN2CCOCC2)s1 |

| Compound | Ki [nM] |
| --- | --- |
| CN1CCN(CCC(=O)Nc2nnc(S(N)(=O)=O)s2)CC1 | 33 |
| NS(=O)(=O)c1ccc(NC(=O)CCN2CCC(Cc3ccccc3)CC2)cc1 | 248 |
| NS(=O)(=O)c1ccc(NC(=O)CCCN2CCOCC2)cc1 | 246 |
